{"source": "patent US20030211942A1", "about": "“Aryl sulfonyl amino carbonyl triazole based selective herbicides” (priority 2000, published 2003)", "assay_in_all_cases": "Post-emergence/greenhouse herbicidal test", "format_in_all_cases": "in vivo", "key": {"Echinochloa crus-galli": {"tested_on": "Echinochloa crus-galli", "excerpt": "(§1) Procarbazone- and flucarbazone-sodium were used as 70 WG formulation. Fenoxaprop-P-ethyl was used in a mixture with mefenpyr-diethyl (75 g of mefenpyr-diethyl/l) as Ralon® Super 69 EW. Cinidon-ethyl and florasulam and iodosufuron in a mixture with mefenpyr-diethyl were used in the form of the finished formulations Lotus® 200 EC, Primus® 50 SC and Hussar® 5 WG (15% mefenpyr-diethyl), respectively. Amicarbazone was used as 70 WG formulation.\n(§2) In pre- and post-emergence experiments, the spray liquor is usually admixed with a surfactant (Renex 36), at a concentration of 0.1%.\n(§3) Test plants are grown under controlled conditions (temperature and light).\n(§4) Following the spray application, the plant containers are kept in a greenhouse under constant light and temperature conditions.\n(§5) After about 3 weeks, the degree of damage to the plants is rated in % damage in comparison to the development of the untreated control.\n(§6) 0% =no damage (like untreated control)\n(§7) 100% =total destruction/damage"}, "Chenopodium album": {"tested_on": "Chenopodium album", "details": "post-emergence, about 3 weeks", "excerpt": "as §1, §2, §3, §4, §5, §6, §7"}, "Digitaria sanguinalis": {"tested_on": "Digitaria sanguinalis", "details": "post-emergence, about 3 weeks", "excerpt": "as §1, §2, §3, §4, §5, §6, §7"}, "Stellaria media": {"tested_on": "Stellaria media", "details": "post-emergence, about 3 weeks", "excerpt": "as §1, §2, §3, §4, §5, §6, §7"}, "Datura strumarium": {"tested_on": "Datura strumarium", "details": "post-emergence, about 3 weeks", "excerpt": "as §1, §2, §3, §4, §5, §6, §7"}, "Abutilon theophrasti": {"tested_on": "Abutilon theophrasti", "details": "post-emergence, about 3 weeks", "excerpt": "as §1, §2, §3, §4, §5, §6, §7"}, "Veronica persicaria": {"tested_on": "Veronica persicaria", "details": "60 g of ai/ha, post-emergence, about 3 weeks", "excerpt": "as §1, §2, §3, §4, §5, §6, §7"}, "Xanthium strumarium": {"tested_on": "Xanthium strumarium", "details": "post-emergence, about 3 weeks", "excerpt": "as §1, §2, §3, §4, §5, §6, §7"}, "Eriochloa villosa": {"tested_on": "Eriochloa villosa", "details": "60 g of ai/ha, post-emergence, about 3 weeks", "excerpt": "as §1, §2, §3, §4, §5, §6, §7"}, "Galium aparine": {"tested_on": "Galium aparine", "details": "post-emergence, about 3 weeks", "excerpt": "as §1, §2, §3, §4, §5, §6, §7"}, "Alopecurus myosuroides": {"tested_on": "Alopecurus myosuroides", "details": "post-emergence, about 3 weeks", "excerpt": "as §1, §2, §3, §4, §5, §6, §7"}, "Lolium perenne": {"tested_on": "Lolium perenne", "details": "post-emergence, about 3 weeks", "excerpt": "as §1, §2, §3, §4, §5, §6, §7"}, "Cassia tora": {"tested_on": "Cassia tora", "excerpt": "as §1, §2, §3, §4, §5, §6, §7"}, "Matricaria inodora": {"tested_on": "Matricaria inodora", "excerpt": "as §1, §2, §3, §4, §5, §6, §7"}, "Amaranthus retroflexus": {"tested_on": "Amaranthus retroflexus", "details": "post-emergence, about 3 weeks", "excerpt": "as §1, §2, §3, §4, §5, §6, §7"}, "Bromus secalinus": {"tested_on": "Bromus secalinus", "details": "post-emergence, about 3 weeks", "excerpt": "as §1, §2, §3, §4, §5, §6, §7"}, "Avena fatua": {"tested_on": "Avena fatua", "excerpt": "as §1, §2, §3, §4, §5, §6, §7"}, "Viola arvensis": {"tested_on": "Viola arvensis", "details": "post-emergence, about 3 weeks", "excerpt": "as §1, §2, §3, §4, §5, §6, §7"}, "Polygonum convolvolus": {"tested_on": "Polygonum convolvolus", "details": "post-emergence, about 3 weeks", "excerpt": "as §1, §2, §3, §4, §5, §6, §7"}, "[1]": {"details": "15 g of ai/ha, post-emergence, about 3 weeks"}, "[2]": {"details": "60 g of ai/ha, post-emergence, about 3 weeks"}, "[3]": {"details": "30 g of ai/ha, post-emergence, about 3 weeks"}}, "note": "Where “and” joins values, the source holds several entries; their conditions need not be identical. Equal values may be shown once."}
{"smiles": "COc1nn(C(=O)NS(=O)(=O)c2ccccc2OC(F)(F)F)c(=O)n1C", "note": "[Flucarbazone-sodium, 2-(2-trifluoromethoxy-phenylsulphonylaminocarbonyl)-4-methyl-5-methoxy-2,4-dihydro-3H-1,2,4-triazol-3-one]", "values": [{"measurement": "Echinochloa crus-galli observed", "setting": "Echinochloa crus-galli; [1]", "result": 50, "unit": "%"}, {"measurement": "Echinochloa crus-galli observed", "setting": "Echinochloa crus-galli; [2]", "result": 90, "unit": "%"}, {"measurement": "Echinochloa crus-galli observed", "setting": "Echinochloa crus-galli; application rate 15 g ai/ha", "result": 60}, {"measurement": "Echinochloa crus-galli observed", "setting": "Echinochloa crus-galli; application rate 30 g ai/ha", "result": 70}, {"measurement": "Echinochloa crus-galli observed", "setting": "Echinochloa crus-galli; application rate 60 g ai/ha", "result": 90}, {"measurement": "Chenopodium album observed", "setting": "Chenopodium album; 15 g of ai/ha", "result": 50, "unit": "%"}, {"measurement": "Chenopodium album observed", "setting": "Chenopodium album; 30 g of ai/ha", "result": 50, "unit": "%"}, {"measurement": "Chenopodium album observed", "setting": "Chenopodium album; 60 g of ai/ha", "result": 70, "unit": "%"}, {"measurement": "Digitaria sanguinalis observed", "setting": "Digitaria sanguinalis; 30 g of ai/ha", "result": 20, "unit": "%"}, {"measurement": "Digitaria sanguinalis observed", "setting": "Digitaria sanguinalis; 60 g of ai/ha", "result": 20, "unit": "%"}, {"measurement": "Stellaria media observed", "setting": "Stellaria media; 15 g of ai/ha", "result": 0, "unit": "%"}, {"measurement": "Stellaria media observed", "setting": "Stellaria media; 30 g of ai/ha", "result": 60, "unit": "%"}, {"measurement": "Stellaria media observed", "setting": "Stellaria media; 60 g of ai/ha", "result": 95, "unit": "%"}, {"measurement": "Datura strumarium observed", "setting": "Datura strumarium; 15 g of ai/ha", "result": 70, "unit": "%"}, {"measurement": "Datura strumarium observed", "setting": "Datura strumarium; 60 g of ai/ha", "result": 80, "unit": "%"}, {"measurement": "Abutilon theophrasti observed", "setting": "Abutilon theophrasti; 15 g of ai/ha", "result": 0, "unit": "%"}, {"measurement": "Abutilon theophrasti observed", "setting": "Abutilon theophrasti; 30 g of ai/ha", "result": 0, "unit": "%"}, {"measurement": "Abutilon theophrasti observed", "setting": "Abutilon theophrasti; 60 g of ai/ha", "result": 0, "unit": "%"}, {"measurement": "Veronica persicaria observed", "setting": "Veronica persicaria", "result": 0, "unit": "%"}, {"measurement": "Xanthium strumarium observed", "setting": "Xanthium strumarium; 15 g of ai/ha", "result": 20, "unit": "%"}, {"measurement": "Xanthium strumarium observed", "setting": "Xanthium strumarium; 30 g of ai/ha", "result": 40, "unit": "%"}, {"measurement": "Xanthium strumarium observed", "setting": "Xanthium strumarium; 60 g of ai/ha", "result": 60, "unit": "%"}, {"measurement": "Eriochloa villosa observed", "setting": "Eriochloa villosa", "result": 70, "unit": "%"}, {"measurement": "Galium aparine observed", "setting": "Galium aparine; 15 g of ai/ha", "result": 0, "unit": "%"}, {"measurement": "Galium aparine observed", "setting": "Galium aparine; 30 g of ai/ha", "result": 0, "unit": "%"}, {"measurement": "Galium aparine observed", "setting": "Galium aparine; 60 g of ai/ha", "result": 0, "unit": "%"}, {"measurement": "Alopecurus myosuroides observed", "setting": "Alopecurus myosuroides; 15 g of ai/ha", "result": 70, "unit": "%"}, {"measurement": "Alopecurus myosuroides observed", "setting": "Alopecurus myosuroides; 30 g of ai/ha", "result": 70, "unit": "%"}, {"measurement": "Alopecurus myosuroides observed", "setting": "Alopecurus myosuroides; 60 g of ai/ha", "result": 70, "unit": "%"}, {"measurement": "Lolium perenne observed", "setting": "Lolium perenne; 15 g of ai/ha", "result": 80, "unit": "%"}, {"measurement": "Lolium perenne observed", "setting": "Lolium perenne; 30 g of ai/ha", "result": 90, "unit": "%"}, {"measurement": "Lolium perenne observed", "setting": "Lolium perenne; 60 g of ai/ha", "result": 90, "unit": "%"}, {"measurement": "Cassia tora observed", "setting": "Cassia tora; [1]", "result": 50, "unit": "%"}, {"measurement": "Cassia tora observed", "setting": "Cassia tora; [3]", "result": 50, "unit": "%"}, {"measurement": "Cassia tora observed", "setting": "Cassia tora; [2]", "result": 50, "unit": "%"}, {"measurement": "Cassia tora observed", "setting": "Cassia tora; application rate 15 g ai/ha", "result": 0}, {"measurement": "Matricaria inodora observed", "setting": "Matricaria inodora; [2]", "result": 20, "unit": "%"}, {"measurement": "Matricaria inodora observed", "setting": "Matricaria inodora; application rate 15 g ai/ha", "result": 20}, {"measurement": "Matricaria inodora observed", "setting": "Matricaria inodora; application rate 30 g ai/ha", "result": 60}, {"measurement": "Matricaria inodora observed", "setting": "Matricaria inodora; application rate 60 g ai/ha", "result": 60}, {"measurement": "Amaranthus retroflexus observed", "setting": "Amaranthus retroflexus; 15 g of ai/ha", "result": 90, "unit": "%"}, {"measurement": "Amaranthus retroflexus observed", "setting": "Amaranthus retroflexus; 30 g of ai/ha", "result": 90, "unit": "%"}, {"measurement": "Amaranthus retroflexus observed", "setting": "Amaranthus retroflexus; 60 g of ai/ha", "result": 90, "unit": "%"}, {"measurement": "Bromus secalinus observed", "setting": "Bromus secalinus; 15 g of ai/ha", "result": 70, "unit": "%"}, {"measurement": "Bromus secalinus observed", "setting": "Bromus secalinus; 30 g of ai/ha", "result": "70% and 90%"}, {"measurement": "Bromus secalinus observed", "setting": "Bromus secalinus; 60 g of ai/ha", "result": "80% and 90%"}, {"measurement": "Avena fatua observed", "setting": "Avena fatua; [1]", "result": 80, "unit": "%"}, {"measurement": "Avena fatua observed", "setting": "Avena fatua; [3]", "result": 90, "unit": "%"}, {"measurement": "Avena fatua observed", "setting": "Avena fatua; [2]", "result": 90, "unit": "%"}, {"measurement": "Avena fatua observed", "setting": "Avena fatua; Table B-62, application rate 15 g ai/ha", "result": 80}, {"measurement": "Avena fatua observed", "setting": "Avena fatua; application rate 15 g ai/ha", "result": 70}, {"measurement": "Avena fatua observed", "setting": "Avena fatua; application rate 30 g ai/ha", "result": 70}, {"measurement": "Avena fatua observed", "setting": "Avena fatua; application rate 60 g ai/ha", "result": 70}, {"measurement": "Viola arvensis observed", "setting": "Viola arvensis; 15 g of ai/ha", "result": "60% and 50% and 80%"}, {"measurement": "Viola arvensis observed", "setting": "Viola arvensis; 30 g of ai/ha", "result": 50, "unit": "%"}, {"measurement": "Viola arvensis observed", "setting": "Viola arvensis; 60 g of ai/ha", "result": 50, "unit": "%"}, {"measurement": "Polygonum convolvolus observed", "setting": "Polygonum convolvolus; 15 g of ai/ha", "result": 60, "unit": "%"}, {"measurement": "Polygonum convolvolus observed", "setting": "Polygonum convolvolus; 30 g of ai/ha", "result": 70, "unit": "%"}, {"measurement": "Polygonum convolvolus observed", "setting": "Polygonum convolvolus; 60 g of ai/ha", "result": 70, "unit": "%"}]}
